Values quoted from earlier work, collected in patent US7067315B2, “Identification of anti-protozoal agents” (President and Fellows of Harvard College, priority 2001, dated 2006).

System: Apicomplexan parasites
Conditions: several Apicomplexan parasites; by net actin filament depolymerization

## C=C1[C@@H](C)[C@H]2[C@H](Cc3ccccc3)NC(=O)[C@]23[C@H](OC(C)=O)/C=C/[C@@](C)(O)C(=O)[C@@H](C)C/C=C/[C@H]3[C@@H]1O [cytochalsin D]
  inhibition of parasite motility and invasion: inhibits parasite motility and invasion
